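Grown in 96-well plates, cells were treated for 48 hours with each compound at five concentrations. Insufficient inhibition: endpoint recorded as highest concentration tested. GI50: concentration for 50% inhibition of growth. At the TGI there is no net growth.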
Legend:
Test in all cases: inhibition of tumour cell growth, NCI panel, 48 h
NCI-H226 lung = test system: NCI-H226 lung
TK-10 renal = test system: TK-10 renal
UACC-62 melanoma = test system: UACC-62 melanoma
T-47D breast = test system: T-47D breast
K-562 leukemia = test system: K-562 leukemia
ACHN renal = test system: ACHN renal
LOX IMVI melanoma = test system: LOX IMVI melanoma
M14 melanoma = test system: M14 melanoma
SF-268 CNS = test system: SF-268 CNS
U251 CNS = test system: U251 CNS

Compound | GI50 (NCI-H226 lung) [µM] | TGI (NCI-H226 lung) [µM] | GI50 (TK-10 renal) [µM] | TGI (TK-10 renal) [µM] | GI50 (UACC-62 melanoma) [µM] | TGI (UACC-62 melanoma) [µM] | GI50 (T-47D breast) [µM] | TGI (T-47D breast) [µM] | GI50 (K-562 leukemia) [µM] | TGI (K-562 leukemia) [µM] | GI50 (ACHN renal) [µM] | TGI (ACHN renal) [µM] | GI50 (LOX IMVI melanoma) [µM] | TGI (LOX IMVI melanoma) [µM] | GI50 (M14 melanoma) [µM] | TGI (M14 melanoma) [µM] | GI50 (SF-268 CNS) [µM] | TGI (SF-268 CNS) [µM] | GI50 (U251 CNS) [µM] | TGI (U251 CNS) [µM]
COc1ccc2cc(Cn3cc[n+](Cc4ccc5ccccc5c4)c3)ccc2c1 | 2.97 | 16.4 | 3.72 | 15 | 1.49 | 3.25 | 1.87 | 7.56 | 3.51 | 16.3 | 14.3 | 30.4 | 1.5 | 2.86 | 1.77 | 4.21 | 2.53 | 11.8 | 2.79 | 12.3
Cc1nn(-c2ccccc2)c2nc3c(nc12)C1=NCCN1C(c1ccc(Cl)cc1)N3 (stereo not given) | 5.04 | 14.4 | 2.93 | 7.18 | 1.95 | 3.8 | 1.74 | 3.42 | 2.42 | 6.19 | 3.62 | 13.2 | 1.94 | 3.91 | 1.98 | 3.86 | 5.61 | 17.6 | 2.21 | 5.98
COc1ccc2c(c1)/C(=C\c1c(Cl)n(C)c3ccccc13)C(=O)N2 | 2.19 | 19.5 | 9.26 | 34.2 | 0.255 | 5.34 | 3.02 | 31.4 | 3.71 | > 100 | 1.6 | 16.2 | 0.83 | > 100 | 1.61 | 23.8 | 2.87 | 35.1 | 0.817 | 10.5
CCC(c1ccc2cc(O)ccc2c1)C(C)(C)C(=O)O (stereo not given) |  | > 100 |  | > 100 |  | > 100 |  | > 100 |  | > 100 |  | > 100 |  | > 100 |  | > 100 |  | > 100 |  | > 100
Cc1ccc(NC2=C(Cl)C(=O)N(Cc3ccccc3)C2=O)cc1Cl | 0.144 | 3.83 | 9.13 | 24.3 | 3.85 | 16.8 | 4.3 | 25.3 | 3.69 | 25.8 | 11.1 | 26.6 | 2.53 | 14.2 | 11 | 22.9 | 3.28 | 15.1 | 3.75 | 15.9
S=C(c1ccc2c(c1)OCO2)N1CCN(c2cccc(Cl)c2)CC1 | 14 | > 100 | 4.55 | > 100 | 0.429 | > 100 | 7.31 | > 100 | 0.318 | > 41.8 | 13.4 | > 100 | 1.14 | > 100 | 0.472 | > 100 | 4.65 | > 100 | 0.61 | > 100
O=C(NCCNc1nccc(-c2c(-c3ccc(F)cc3)nc3sccn23)n1)c1ccccc1 | 5.87 | 25 | 15.8 | 48.7 | 4.87 | 19.9 | 1.91 | 20.9 | 7.72 | > 100 | 2.98 | 49.2 | 4.3 | 31.4 | 7.97 | 22.3 | 12.4 | > 100 | 8.57 | > 100

From PubChem BioAssay (NCI)
